Values after ≈ are worked out from the molar mass of the structure shown.
Legend:
Phytophthora capsici = assay: Antifungal activity against Phytophthora capsici; assay type: functional, organism-based
Leishmania donovani [1] = assay: Antileishmanial activity against Leishmania donovani amastigotes infected in J774 macrophage assessed as inhibition of parasite growth incubated for 48 hrs by luciferase assay; assay type: functional, organism-based; conditions: J774, 48 h
Plasmodium falciparum [2] = assay: Antiparasitic activity against Plasmodium falciparum K1 assessed as reduction in parasite growth; assay type: functional, organism-based
Escherichia coli [3] = assay: Antibacterial activity against Escherichia coli DC2; assay type: functional
Pseudomonas aeruginosa [4] = assay: Antibacterial activity against Pseudomonas aeruginosa ATCC 15442 […] assessed as reduction in bacterial growth after 18 to 20 hrs by CLSI-based broth microdilution assay; assay type: functional; conditions: time 18-20 hrs
Staphylococcus aureus [5] = assay: Antibacterial activity against methicillin-resistant Staphylococcus aureus K147 assessed as reduction in bacterial growth; assay type: functional
Bacillus subtilis [6] = assay: Antibacterial activity against Bacillus subtilis NBRC 3513; assay type: functional
Staphylococcus aureus [7] = assay: Antibacterial activity against methicillin-resistant Staphylococcus aureus SAP0017 assessed as reduction in bacterial growth; assay type: functional
Leishmania donovani [8] = assay: Antileishmanial activity against amastigote form of Leishmania donovani infected in BALB/c mouse assessed as inhibition of parasite growth in liver at 10 mg/kg, po measured for 7 days by geimsa staining based analysis relative to control; assay type: functional; design: scale not given: the % may be the effect or the level left; conditions: time 7 day
Bacillus subtilis [9] = assay: Antibacterial activity against Bacillus subtilis; assay type: functional
Streptococcus pyogenes = assay: Antibacterial activity against Streptococcus pyogenes assessed as bacterial growth inhibition; assay type: functional
Enterococcus faecalis = assay: Antibacterial activity against Enterococcus faecalis; assay type: functional
Plasmodium falciparum [10] = assay: Antiplasmodial activity against Plasmodium falciparum assessed as parasite growth inhibition; assay type: functional, organism-based
Bacillus subtilis [11] = assay: Antibacterial activity against Bacillus subtilis PY79 assessed as reduction in bacterial growth; assay type: functional, organism-based
Staphylococcus aureus [12] = assay: Antimicrobial activity against methicillin-resistant Staphylococcus aureus assessed as reduction in microbial growth after 24 to 48 hrs by microdilution susceptibility test; assay type: functional; conditions: time 24-48 hrs
[13] = system: Mycobacterium tuberculosis; assay: Antibacterial activity against Mycobacterium tuberculosis H37Ra assessed as reduction in bacterial growth incubated for 14 days by CLSI protocol based method; assay type: functional; conditions: 336 h, time 14 day
Staphylococcus aureus [14] = assay: Antibacterial activity against Staphylococcus aureus assessed as reduction in microbial growth by CLSI based broth microdilution method; assay type: functional
[15] = system: Mycobacterium tuberculosis; assay: Antimycobacterial activity against Mycobacterium tuberculosis H37Rv assessed as inhibition of bacterial growth incubated for 7 to 14 days by MABA assay; assay type: functional; conditions: time 7-14 day
[16] = system: Mycobacterium intracellulare; assay: Antibacterial activity against Mycobacterium intracellulare; assay type: functional, organism-based
Pseudomonas aeruginosa [17] = assay: Antibacterial activity against Pseudomonas aeruginosa assessed as reduction in bacterial growth incubated for 24 hrs by broth microdilution method; assay type: functional, organism-based
[18] = system: Mycolicibacterium smegmatis; assay: Antimycobacterial activity against Mycobacterium smegmatis mc2 155 assessed as reduction in bacterial growth; assay type: functional
Alternaria kikuchiana = assay: Antifungal activity against Alternaria kikuchiana; assay type: functional, organism-based
Mycolicibacterium aurum = assay: Antimycobacterial activity against Mycobacterium aurum; assay type: functional
[19] = system: Mycobacterium tuberculosis; assay: Antimycobacterial activity against Mycobacterium tuberculosis H37Ra; assay type: functional, organism-based
[20] = system: Mycolicibacterium fortuitum; assay: Antimycobacterial activity against Mycobacterium fortuitum; assay type: functional
[21] = system: Mycobacterium tuberculosis; assay: Antitubercular activity against Mycobacterium tuberculosis H37Ra assessed as inhibition of bacterial growth; assay type: functional
Escherichia coli [22] = assay: Antibacterial activity against Escherichia coli; assay type: functional
Bipolaris sorokiniana = assay: Antifungal activity against Cochliobolus sativus; assay type: functional, organism-based

For `C=C[C@H](O)C#CC#C[C@H](O)c1cccs1`, the EC50 (Phytophthora capsici) was 2.7 µg/mL (≈ 12.4 µM).

With `C=C[C@H](C#CC#C[C@@H](O)CCCCCCCCC)OC(C)=O` the IC50 (Leishmania donovani [1]) was greater than 10 µM and the IC50 (Plasmodium falciparum [2]) was 8.15 µg/mL (≈ 26.8 µM).

Molecule `C=C[C@H](O)C#CC#C[C@@H](CCCCCCCCC)NC(=O)c1ccccc1` has an IC50 (Leishmania donovani [1]) of 0.005 µM.

With `C=CC(O)C#CC#CC(O)/C=C\C(O)CCCCCC` (stereo not given) the MIC (Escherichia coli [3]) was 200 µg/mL (≈ 724 µM), the MIC (Pseudomonas aeruginosa [4]) was 200 µg/mL (≈ 724 µM) and the MIC (Staphylococcus aureus [5]) was 200 µg/mL (≈ 724 µM). For the same molecule, the MIC (Bacillus subtilis [6]) was 200 µg/mL (≈ 724 µM) and the MIC (Staphylococcus aureus [7]) was 200 µg/mL (≈ 724 µM).

For `C=C[C@H](O)C#CC#C[C@H](O)CCCCCCCCC`, the Activity (Leishmania donovani [8]) was 41%, the IC50 (Leishmania donovani [1]) was 0.013 µM and the MIC (Bacillus subtilis [9]) was 2 µM (≈ 0.525 µg/mL). It also gave an MIC (Streptococcus pyogenes) of 8 µM (≈ 2.1 µg/mL), an MIC (Enterococcus faecalis) of 16 µM (≈ 4.2 µg/mL) and an IC50 (Plasmodium falciparum [10]) of 0.271 µg/mL (≈ 1.03 µM).

`C#CC(O)/C=C/C(O)CCCC(O)CC#CC(O)C#CCCCCC(=O)CCCCC/C=C/C(O)CCCCCCCCCCCCCC(O)C(O)C#CC(=O)O` (stereo not given) showed an IC50 (Bacillus subtilis [11]) of 12 µg/mL (≈ 15.1 µM).

For `C#CC(O)/C=C/C(O)CCCC(O)CC#CC(O)C#CC(O)CCCC(=O)CCCCC/C=C/C(O)CCCCCCCCCCCCC(O)C(O)C(O)C#CC(=O)O` (stereo not given), the IC50 (Bacillus subtilis [11]) was 12 µg/mL (≈ 14.5 µM).

With `C=C[C@@H](O)C#CC#C[C@@H](O)c1cccs1` the EC50 (Phytophthora capsici) was 3.3 µg/mL (≈ 15.1 µM).

Work on `C=C[C@@H](O)C#CC#C[C@@H](O)/C=C\CCCCCCC` [FALCARINDIOL] yielded an MIC (Staphylococcus aureus [12]) of 16 µg/mL, an MIC [13] of 1.6 µg/mL (≈ 6.14 µM) and an MIC (Staphylococcus aureus [14]) of 7.8 µg/mL.

`C#CC(O)/C=C/CCCCCCCCC/C=C/CCCCCCCCC/C=C/C(O)C#C` (stereo not given) showed an MIC [15] of 1.4 µM (≈ 0.617 µg/mL).

For `CC(C)CCCC/C=C\CCCCCCCCC[C@@H](O)C#CC#CCO`, the IC50 [16] was 9.9 µM and the IC50 (Pseudomonas aeruginosa [17]) was 1.7 µM.

For `C=C[C@@H](C#CC#C[C@@H](CCCCCCCCC)NS(C)(=O)=O)OC(C)=O`, the IC50 (Leishmania donovani [1]) was 0.05 µM, the MIC (Bacillus subtilis [9]) was 4 µM (≈ 1.53 µg/mL) and the MIC (Streptococcus pyogenes) was 8 µM (≈ 3.05 µg/mL).

`CCCCCCCC/C=C\CCCCCCCCC[C@@H](O)C#CC#CCO` showed an IC50 [16] of 17 µM and an IC50 (Pseudomonas aeruginosa [17]) of 2.9 µM.

With `CCCCCC/C=C\CCCCCCCCC[C@@H](O)C#CC#CCO` the IC50 [16] was 23 µM and the IC50 (Pseudomonas aeruginosa [17]) was 2.6 µM.

Work on `C=C[C@@H](O)C#CC#CC[C@H]1O[C@H]1CCCCCCC` yielded an MIC [18] of 25 µg/mL (≈ 96 µM) and an MIC [13] of 6.13 µg/mL (≈ 23.5 µM).

Molecule `C=C[C@@H](O)C#CC#CC/C=C\CCCCCCCC` has an EC50 (Alternaria kikuchiana) of 48 µg/mL (≈ 186 µM).

`C#CC(O)/C=C/C(O)CCCC(O)C(O)C#CC(O)C#CCCCC(O)/C=C/CCCCCCCCCCCCCCCCCCCCCC(O)C(O)C#CC(=O)O` (stereo not given) gave an IC50 (Bacillus subtilis [11]) of 25 µg/mL (≈ 30.7 µM).

`C=C[C@@H](O)C#CC#CC/C=C\CCCCCCC` showed an MIC (Mycolicibacterium aurum) of 16 µM (≈ 3.91 µg/mL), an IC50 [19] of 15 µM and an MIC [18] of 12 µg/mL (≈ 49.1 µM). The MIC [13] was 6.25 µg/mL (≈ 25.6 µM), the MIC [20] was 16 µM (≈ 3.91 µg/mL) and the MIC [21] was 3.73 µg/mL (≈ 15.3 µM).

`C=C[C@@H](C#CC#C[C@@H](CCCCCCCCC)NC(=O)c1ccccc1)OC(C)=O` was tested, and the Activity (Leishmania donovani [8]) was 26% and the IC50 (Leishmania donovani [1]) was 0.03 µM.

`C=C[C@H](O)C#CC#C[C@@H](O)c1cccs1` gave an EC50 (Phytophthora capsici) of 3.6 µg/mL (≈ 16.5 µM).

`C=C[C@@H](C#CC#C[C@H](O)CCCCCCCCC)OC(C)=O` gave an IC50 (Leishmania donovani [1]) of 0.63 µM, an MIC (Bacillus subtilis [9]) of 8 µM (≈ 2.44 µg/mL) and an MIC (Streptococcus pyogenes) of 8 µM (≈ 2.44 µg/mL). For the same molecule, the MIC (Enterococcus faecalis) was 32 µM (≈ 9.74 µg/mL) and the IC50 (Plasmodium falciparum [10]) was 0.341 µg/mL (≈ 1.12 µM).

With `CC[C@H](O)C#CC#C[C@@H](O)/C=C\CCCCCCCCOC(C)=O` [OPLOPANDIOL ACETATE] the MIC (Escherichia coli [22]) was greater than 50 µg/mL.

`C=C[C@@H](C#CC#C[C@@H](CCCCCCCCC)NCCCC)OC(C)=O` showed an Activity (Leishmania donovani [8]) of 32% and an IC50 (Leishmania donovani [1]) of 0.03 µM.

Work on `C=C[C@H](O)C#CC#CC/C=C\CCCCCCCC` yielded an EC50 (Bipolaris sorokiniana) of 26 µg/mL (≈ 101 µM).

In the case of `C=C[C@H](C#CC#C[C@H](O)CCCCCCCCC)OC(C)=O`, the IC50 (Leishmania donovani [1]) is reported as greater than 10 µM and the IC50 (Plasmodium falciparum [2]) is reported as 8.07 µg/mL (≈ 26.5 µM).

Source: ChEMBL document CHEMBL6074642, “Natural and Bioinspired Lipidic Alkynylcarbinols as Leishmanicidal, Antiplasmodial, Trypanocidal, Fungicidal, Antibacterial, and Antimycobacterial Agents” (J Nat Prod, 2024)
